# What was measured:
# [1] = system: paclitaxel resistant and epothilone A resistant cell lines; experiment: Activity against paclitaxel resistant and epothilone A resistant cell lines; type: cell-based
# PC-3 prostate cell line = experiment: Cytotoxicity against PC3 prostate cancer cell line; settings: PC3
# [2] = system: A2780 ovarian cancer cell line; experiment: Cytotoxicity against A2780 ovarian cancer cell line; settings: A2780, relative to PTX
# [3] = system: A2780 ovarian cancer cell line; settings: meta-bridged analogs, earlier work (Org. Lett. 2001, 3, 2461); cited from earlier work
Compound,times better activity than paclitaxel [1] [times],"cytotoxicity against PC3 in words, compared with PTX/Taxol (PC-3 prostate cell line)",times more potent/active than PTX against A2780 [2],"potency as cytotoxins, fold less than Taxol/PTX [3]"
CC(=O)O[C@H]1C(=O)[C@@]2(C)[C@@H]3[C@H](OC(=O)c4ccccc4)[C@]4(O)C[C@H](OC(=O)[C@H](O)[C@@H](NC(=O)c5ccccc5)c5ccccc5C/C=C\C(=O)O[C@]35CO[C@@H]5C[C@@H]2O)C(C)=C1C4(C)C [Compound 15d],100,slightly more cytotoxicity than PTX,at least 20 times,
CC(=O)O[C@H]1C(=O)[C@@]2(C)[C@@H]3[C@H](OC(=O)c4ccccc4)[C@]4(O)C[C@H](OC(=O)C(O)C(NC(=O)c5ccccc5)c5cccc(c5)OC/C=C\CCC(=O)O[C@]35CO[C@@H]5C[C@@H]2O)C(C)=C1C4(C)C (stereo partly shown) [Compound 16],,,,less than one-tenth the activity of Taxol
CC(=O)O[C@H]1C(=O)[C@@]2(C)[C@@H]3[C@H](OC(=O)c4ccccc4)[C@]4(O)C[C@H](OC(=O)[C@H](O)[C@@H](NC(=O)c5ccccc5)c5ccccc5CCCC(=O)O[C@]35CO[C@@H]5C[C@@H]2O)C(C)=C1C4(C)C [Compound 16d],100,slightly more cytotoxicity than PTX,about 10 times,

# From patent US7312240B2, “Conformationally constrained paclitaxel analogs and their use as anticancer and anti-Alzheimers agents” (Virginia Tech Intellectual Properties, Inc., priority 2004, dated 2007)
